Experimental data from the supplement of paper PMC10307832.

How the values were obtained:
Experiment in all cases: relative viability (nuclei count vs DMSO), 5 days (fraction); higher = more cells survive
NCI-H1355 = tested on: NCI-H1355
How it was run: (§1)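 Relative viability equals treated-well nuclei counts divided by vehicle-well nuclei counts. Counts came from 4× images of lung cancer cell lines grown in 1536-well plates for 5 days after pin-tool dosing on the day after seeding. Dosing used one drug alone or a fixed anchor-drug dose plus five library-drug doses (not always all listed) in √10 steps, and values are medians of duplicate plates.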

HCC-366 = tested on: HCC-366
How it was run: as §1

NCI-H1666 = tested on: NCI-H1666
How it was run: as §1

HCC-44 = tested on: HCC-44
How it was run: as §1

NCI-H1734 = tested on: NCI-H1734
How it was run: as §1

NCI-H2009 = tested on: NCI-H2009
How it was run: as §1

LK-2 = tested on: LK-2
How it was run: as §1

NCI-H838 = tested on: NCI-H838
How it was run: as §1

IA-LM = tested on: IA-LM
How it was run: as §1

HCC-78 = tested on: HCC-78
How it was run: as §1

NCI-H520 = tested on: NCI-H520
How it was run: as §1

NCI-H358 = tested on: NCI-H358
How it was run: as §1

NCI-H1703 = tested on: NCI-H1703
How it was run: as §1

ABC-1 = tested on: ABC-1
How it was run: as §1

NCI-H727 = tested on: NCI-H727
How it was run: as §1

NCI-H2405 = tested on: NCI-H2405
How it was run: as §1

NCI-H1755 = tested on: NCI-H1755
How it was run: as §1

NCI-H1650 = tested on: NCI-H1650
How it was run: as §1

UMC-11 = tested on: UMC-11
How it was run: as §1

SW 1573 = tested on: SW 1573
How it was run: as §1

BEN = tested on: BEN
How it was run: as §1

NCI-H2228 = tested on: NCI-H2228
How it was run: as §1

LOU-NH91 = tested on: LOU-NH91
How it was run: as §1

NCI-H2347 = tested on: NCI-H2347
How it was run: as §1

201T = tested on: 201T
How it was run: as §1

SMILES: CCCCCCCCCCCC1=C(O)C(=O)C=C(O)C1=O [Embelin] + CS(=O)(=O)CCNCc1ccc(-c2ccc3ncnc(Nc4ccc(OCc5cccc(F)c5)c(Cl)c4)c3c2)o1 [Lapatinib] (partner 2 µM)
- relative viability (NCI-H1355; first compound 0.08 µM): 0.878
- relative viability (NCI-H1355; first compound 0.8 µM): 1.15
- relative viability (NCI-H1355; first compound 2.53 µM): 1.07
- relative viability (NCI-H1355; first compound 8 µM): 0.686
- relative viability (HCC-366; first compound 0.08 µM): 1.08
- relative viability (HCC-366; first compound 0.8 µM): 1.11
- relative viability (HCC-366; first compound 2.53 µM): 1.21
- relative viability (HCC-366; first compound 8 µM): 1.32
- relative viability (NCI-H1666; first compound 0.08 µM): 0.603
- relative viability (NCI-H1666; first compound 0.8 µM): 0.795
- relative viability (NCI-H1666; first compound 2.53 µM): 0.761
- relative viability (NCI-H1666; first compound 8 µM): 0.616
- relative viability (HCC-44; first compound 0.08 µM): 1.03
- relative viability (HCC-44; first compound 0.8 µM): 1.02
- relative viability (HCC-44; first compound 2.53 µM): 1.15
- relative viability (HCC-44; first compound 8 µM): 0.908
- relative viability (NCI-H1734; first compound 0.08 µM): 0.963
- relative viability (NCI-H1734; first compound 0.8 µM): 1.28
- relative viability (NCI-H1734; first compound 2.53 µM): 1.26
- relative viability (NCI-H1734; first compound 8 µM): 1.12
- relative viability (NCI-H2009; first compound 0.08 µM): 1.05
- relative viability (NCI-H2009; first compound 0.8 µM): 1.09
- relative viability (NCI-H2009; first compound 2.53 µM): 0.815
- relative viability (NCI-H2009; first compound 8 µM): 0.879
- relative viability (LK-2; first compound 0.08 µM): 0.906
- relative viability (LK-2; first compound 0.8 µM): 0.991
- relative viability (LK-2; first compound 2.53 µM): 1.24
- relative viability (LK-2; first compound 8 µM): 0.825
- relative viability (NCI-H838; first compound 0.08 µM): 1.07
- relative viability (NCI-H838; first compound 0.8 µM): 1.31
- relative viability (NCI-H838; first compound 2.53 µM): 1.02
- relative viability (NCI-H838; first compound 8 µM): 1.14
- relative viability (IA-LM; first compound 0.08 µM): 0.769
- relative viability (IA-LM; first compound 0.8 µM): 0.894
- relative viability (IA-LM; first compound 2.53 µM): 0.789
- relative viability (IA-LM; first compound 8 µM): 0.645
- relative viability (HCC-78; first compound 0.08 µM): 0.767
- relative viability (HCC-78; first compound 0.8 µM): 0.703
- relative viability (HCC-78; first compound 2.53 µM): 0.796
- relative viability (HCC-78; first compound 8 µM): 0.616
- relative viability (NCI-H520; first compound 0.08 µM): 0.946
- relative viability (NCI-H520; first compound 0.8 µM): 0.729
- relative viability (NCI-H520; first compound 2.53 µM): 0.936
- relative viability (NCI-H520; first compound 8 µM): 0.862
- relative viability (NCI-H358; first compound 0.08 µM): 0.452
- relative viability (NCI-H358; first compound 0.8 µM): 0.525
- relative viability (NCI-H358; first compound 2.53 µM): 0.47
- relative viability (NCI-H358; first compound 8 µM): 0.384
- relative viability (NCI-H1703; first compound 0.08 µM): 1.2
- relative viability (NCI-H1703; first compound 0.8 µM): 1.6
- relative viability (NCI-H1703; first compound 2.53 µM): 1.02
- relative viability (NCI-H1703; first compound 8 µM): 1.23
- relative viability (ABC-1; first compound 0.08 µM): 1.28
- relative viability (ABC-1; first compound 0.8 µM): 1.7
- relative viability (ABC-1; first compound 2.53 µM): 1.25
- relative viability (ABC-1; first compound 8 µM): 1.1
- relative viability (NCI-H727; first compound 0.08 µM): 0.737
- relative viability (NCI-H727; first compound 0.8 µM): 0.753
- relative viability (NCI-H727; first compound 2.53 µM): 1.13
- relative viability (NCI-H727; first compound 8 µM): 0.738
- relative viability (NCI-H2405; first compound 0.08 µM): 1.16
- relative viability (NCI-H2405; first compound 0.8 µM): 1.48
- relative viability (NCI-H2405; first compound 2.53 µM): 1.06
- relative viability (NCI-H2405; first compound 8 µM): 1.02
- relative viability (NCI-H1755; first compound 0.08 µM): 1.03
- relative viability (NCI-H1755; first compound 0.8 µM): 1.04
- relative viability (NCI-H1755; first compound 2.53 µM): 1.06
- relative viability (NCI-H1755; first compound 8 µM): 0.97
- relative viability (NCI-H1650; first compound 0.08 µM): 0.762
- relative viability (NCI-H1650; first compound 0.8 µM): 0.931
- relative viability (NCI-H1650; first compound 2.53 µM): 0.74
- relative viability (NCI-H1650; first compound 8 µM): 0.712
- relative viability (UMC-11; first compound 0.08 µM): 1.12
- relative viability (UMC-11; first compound 0.8 µM): 1.17
- relative viability (UMC-11; first compound 2.53 µM): 1.08
- relative viability (UMC-11; first compound 8 µM): 0.877
- relative viability (SW 1573; first compound 0.08 µM): 1.04
- relative viability (SW 1573; first compound 0.8 µM): 1.03
- relative viability (SW 1573; first compound 2.53 µM): 1.33
- relative viability (SW 1573; first compound 8 µM): 1.09
- relative viability (BEN; first compound 0.08 µM): 0.697
- relative viability (BEN; first compound 0.8 µM): 0.887
- relative viability (BEN; first compound 2.53 µM): 0.805
- relative viability (BEN; first compound 8 µM): 0.73
- relative viability (NCI-H2228; first compound 0.08 µM): 1.36
- relative viability (NCI-H2228; first compound 0.8 µM): 1.1
- relative viability (NCI-H2228; first compound 2.53 µM): 1.41
- relative viability (NCI-H2228; first compound 8 µM): 1.08
- relative viability (LOU-NH91; first compound 0.08 µM): 0.823
- relative viability (LOU-NH91; first compound 0.8 µM): 0.99
- relative viability (LOU-NH91; first compound 2.53 µM): 0.866
- relative viability (LOU-NH91; first compound 8 µM): 0.63
- relative viability (NCI-H2347; first compound 0.08 µM): 1.02
- relative viability (NCI-H2347; first compound 0.8 µM): 0.929
- relative viability (NCI-H2347; first compound 2.53 µM): 0.968
- relative viability (NCI-H2347; first compound 8 µM): 0.969
- relative viability (201T; first compound 0.08 µM): 1.03
- relative viability (201T; first compound 0.8 µM): 1.04
- relative viability (201T; first compound 2.53 µM): 1
- relative viability (201T; first compound 8 µM): 0.99
